This is an account of results in ChEMBL document CHEMBL1125802, “Isolation and structure of the cell growth inhibitory constituents from the western Pacific marine sponge Axinella sp” (1991).

In brackets after ≈: the same amount, converted by molar mass. Where a SMILES comes first, the peptide text is derived from it.

The test system of assay [1] is P388. Put plainly: Effect on P388 lymphocytic leukemia (PS system) cell growth. It counts as functional. The note with it: Mus musculus, read-out: ED50 (the source's name).
Assay [2] has as its system P388. The experiment in a line: Effect on change in life span of P388 lymphocytic leukemia (PS system) cell growth at 100 mg/kg. It counts as functional, Mus musculus.
The subject of assay [3] is P388. The experiment in a line: Effect on P388 lymphocytic leukemia (PS system) cell growth […]. The format is functional. The note with it: Mus musculus, read-out: ED50 (the source's name).
Assay [4] deals with P388. The experiment in a line: T/C at 25 mg/kg. The format is functional, Mus musculus.
For assay [5], the system named is P388. The experiment in a line: T/C at 150 ug/kg. The format is functional, Mus musculus.

Regarding `CC(C)O.ClCCl`, the EC50 in assay [1] came to 2.5 µg/mL. The molecule further gave a Life span in assay [2] of 10%.

On to `CC(C)[C@@H]1NC(=O)[C@H](Cc2ccccc2)NC(=O)[C@@H]2CCCN2C(=O)[C@H](CC(N)=O)NC(=O)[C@H](C(C)C)NC(=O)[C@@H]2CCCN2C(=O)[C@H](C(C)C)NC1=O` (cyclo(FVVPVNP)), for which the EC50 in assay [3] is 0.21 µg/mL (≈ 0.279 µM). Molecule `C=C1C[C@@H]2CC[C@@]34C[C@H]5O[C@H]6[C@@H](O3)[C@H]3O[C@H](CC[C@@H]3O[C@H]6[C@H]5O4)CC(=O)O[C@@H]3[C@@H](C)[C@@H]4O[C@@H]5C[C@]6(C[C@@H]7O[C@]8(C[C@H](C)[C@@H]9O[C@H]([C@@H](O)C[C@@H](O)CO)C[C@@H]9O8)C[C@H](C)[C@@H]7O6)O[C@@H]5C[C@@H]4O[C@H]3C[C@H]3O[C@@H](CC[C@@H]1O2)C[C@@H](C)C3=C` [HALICHONDRIN B] gave a T/C in assay [4] of 238.

As for `C=C1C[C@@H]2CC[C@@]34C[C@H]5O[C@H]6[C@@H](O3)[C@H]3O[C@H](CC[C@@H]3O[C@H]6[C@H]5O4)CC(=O)O[C@@H]3[C@@H](C)[C@@H]4O[C@@H]5C[C@]6(C[C@@H]7O[C@]8(C[C@H](C)[C@@H]9O[C@@H]%10CC(C(O)CO)O[C@@H]%10C[C@@H]9O8)C[C@H](C)[C@@H]7O6)O[C@@H]5C[C@@H]4O[C@H]3C[C@H]3O[C@@H](CC[C@@H]1O2)C[C@@H](C)C3=C` (stereo not given in full) [HOMOHALICHONDRIN B], the T/C in assay [5] is 285.
